This note sets out measurements from patent US20110201497A1, “Composition Comprising A Pesticide and an Alkoxylate of Iso-Heptadecylamine” (BASF SE, priority 2010, published 2011).

Experiment [1] concerns soybean. Put plainly: Greenhouse test, herbicidal activity of glyphosate SL with amine alkoxylate against soybean. The settings on record: scored vs untreated control. It is filed as in vivo, soybean (cv. Oxford). As for the experimental part: (§1) To carry out greenhouse tests, the winter wheats (cv. Cubus) or soybeans (cv. Oxford) were sown or potted in loamy sand at a sowing depth of 1-2 cm. As soon as the plants had reached a height of 10 to 25 cm (i.e. approx. 10 to 21 days after sowing), the spray mixtures were applied to the plants in a spray cabinet.
(§2) A concentrated formulation comprising glyphosate isoproylammonium dissolved in water and amine alkoxylate of example 2 were diluted with fully demineralized water and were applied at a water application rate of 375 l/ha ([…]). The temperatures during the experimental period, which lasted for 3 to 4 weeks, were between 18 and 35° C. During this time, the test plants received optimal irrigation, the nutrient supply being effected via the irrigation water.
(§3) The herbicidal activity was assessed by scoring the treated plants in comparison with the untreated control plants (table 1). The assessment scale goes from 0% to 100% activity. 100% activity means complete dying at least of the aerial plant parts. In contrast, 0% activity means that no differences were observed between treated and untreated plants. The results in table 1 and 2 confirm the increased activity of the active substance by addition of the amine alkoxylate.

Experiment [2] deals with winter wheat. Nature of the experiment: Greenhouse test, herbicidal activity of glyphosate SL with amine alkoxylate against winter wheat. The settings on record: scored vs untreated control. In kind it is in vivo, winter wheat (cv. Cubus). As for the experimental part: as §1, §2, §3
Setting [3] is: glyphosate 140 g/ha, amine alkoxylate (where present) 300 g/ha, 375 l/ha water.
[4] abbreviates: glyphosate 280 g/ha, with amine alkoxylate where named.

For `O=C(O)CNCP(=O)(O)O` [glyphosate], the “Activity [%] after 14 days” value is given as 29% in experiment [1] (setting [3]), 36% in experiment [1] (setting [4]), 64% in experiment [2] (setting [3]) and 71% in experiment [2] (setting [4]). Further, the “Activity [%] after 21 days” value in experiment [1] (setting [3]) is 38%; in experiment [1] (setting [4]), 40%; in experiment [2] (setting [3]) it was 73%; in experiment [2] (setting [4]) it was 81%. The “Activity [%] after 28 days” value in experiment [1] (setting [3]) came to 38%; in experiment [1] (setting [4]), 40%; in experiment [2] (setting [3]) it was 73%; in experiment [2] (setting [4]), 81%.
